Some test systems named below: PC-3 prostate; HS 578T breast; SNB-75 CNS; MDA-MB-231 breast; COLO 205 colon; DU-145 prostate; HOP-62 NSCLC; SK-MEL-2 melanoma; SF-539 CNS; A549 NSCLC.
Holding throughout (assay): growth of human tumour cells (NCI), 48 h

For eight compounds, GI50 and TGI results are on record in PubChem BioAssay (NCI).

SMILES strings stand for the structures.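 96-well plates; 48 h exposure; 5 concentrations. Endpoints by linear interpolation between flanking doses. Not reached: highest tested concentration assigned. At the GI50, growth is halved. TGI: concentration producing complete growth inhibition.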

For the compound `CC(=O)N1N=C2/C(=C/c3ccc(Cl)cc3)CC(C)CC2C1c1ccc(Cl)cc1` (centres undefined), the GI50 with PC-3 prostate is 12.8 µM; in the experiment with HS 578T breast, 20.6 µM; in the experiment on SNB-75 CNS, 18.4 µM; in the experiment on MDA-MB-231 breast, 18.1 µM; with COLO 205 colon, 11.8 µM; in the experiment on DU-145 prostate, 30.5 µM. The GI50 is 22.1 µM in the experiment with HOP-62 NSCLC, 17.4 µM in the experiment on SK-MEL-2 melanoma, 19.1 µM with SF-539 CNS and 20.6 µM in the experiment on A549 NSCLC. Further, the TGI in the experiment on PC-3 prostate is greater than 100 µM; in the experiment with HS 578T breast, 72.1 µM; with SNB-75 CNS, 65.3 µM; in the experiment with MDA-MB-231 breast, 52.6 µM; in the experiment with COLO 205 colon, 24.5 µM; in the experiment with DU-145 prostate it was greater than 100 µM. The TGI is 54.6 µM with HOP-62 NSCLC, 36.7 µM with SK-MEL-2 melanoma, 38 µM with SF-539 CNS and greater than 100 µM in the experiment on A549 NSCLC.
In the case of `CC(C)(C)CC(N)=O`, the TGI with PC-3 prostate, in the experiment on HS 578T breast, in the experiment on SNB-75 CNS, with MDA-MB-231 breast, in the experiment on COLO 205 colon and with DU-145 prostate was greater than 100 µM throughout. The TGI in the experiment on HOP-62 NSCLC, with SK-MEL-2 melanoma, with SF-539 CNS and in the experiment with A549 NSCLC was greater than 100 µM in each case.
With `Cn1c(NCC(O)CN2CCCC2)cc(=O)n(C)c1=O` (centres undefined), the GI50 in the experiment with PC-3 prostate was greater than 100 µM; with HS 578T breast it was greater than 100 µM; in the experiment with SNB-75 CNS it was 76.2 µM; in the experiment on MDA-MB-231 breast, greater than 100 µM; in the experiment on COLO 205 colon it was greater than 100 µM; with DU-145 prostate, greater than 100 µM. The GI50 with HOP-62 NSCLC, in the experiment on SK-MEL-2 melanoma, in the experiment on SF-539 CNS and in the experiment on A549 NSCLC was greater than 100 µM each time. For the same compound, the TGI in the experiment on PC-3 prostate, in the experiment on HS 578T breast, in the experiment with SNB-75 CNS, in the experiment with MDA-MB-231 breast, with COLO 205 colon and with DU-145 prostate was greater than 100 µM in each case. In addition, the TGI in the experiment on HOP-62 NSCLC, in the experiment with SK-MEL-2 melanoma, in the experiment on SF-539 CNS and with A549 NSCLC was greater than 100 µM each time.
Consider `O=S(=O)(/N=c1/scc(-c2ccccc2)n1-c1ccccc1)c1ccc(N2N=C3c4ccccc4CC3C2c2cccs2)cc1` (centres undefined), for which the GI50 with PC-3 prostate is 75 µM; with HS 578T breast, 60.6 µM; with SNB-75 CNS, greater than 100 µM; with MDA-MB-231 breast it was 52.1 µM; in the experiment with COLO 205 colon, greater than 100 µM; with DU-145 prostate, greater than 100 µM. The GI50 in the experiment on HOP-62 NSCLC was 73.2 µM; with SK-MEL-2 melanoma it was greater than 100 µM; in the experiment on SF-539 CNS, greater than 100 µM; in the experiment on A549 NSCLC it was 57 µM. Besides, the TGI with PC-3 prostate, in the experiment on HS 578T breast, in the experiment on SNB-75 CNS, in the experiment with MDA-MB-231 breast, with COLO 205 colon and in the experiment on DU-145 prostate was greater than 100 µM each time. The TGI in the experiment on HOP-62 NSCLC, in the experiment on SK-MEL-2 melanoma, in the experiment with SF-539 CNS and in the experiment with A549 NSCLC was greater than 100 µM throughout.
As to `COc1ccc(/C=C2\C=C(c3ccccc3)N(CCc3ccccc3)C2=O)cc1OC`, the GI50 was 21.1 µM with PC-3 prostate; 3.66 µM with HS 578T breast; 1.89 µM in the experiment on SNB-75 CNS; 4.16 µM with MDA-MB-231 breast; 17.3 µM in the experiment with COLO 205 colon; 13.2 µM in the experiment with DU-145 prostate. Further, the GI50 with HOP-62 NSCLC was 2.72 µM; in the experiment with SK-MEL-2 melanoma, 18.5 µM; with SF-539 CNS, 6.68 µM; in the experiment with A549 NSCLC, 5.06 µM. The TGI in the experiment on PC-3 prostate is greater than 100 µM; in the experiment with HS 578T breast, 23.4 µM; with SNB-75 CNS, 6.28 µM; in the experiment on MDA-MB-231 breast it was 17.9 µM; with COLO 205 colon, greater than 100 µM; with DU-145 prostate it was greater than 100 µM. Moreover, the TGI with SK-MEL-2 melanoma was greater than 100 µM; in the experiment with SF-539 CNS, 23 µM; in the experiment with A549 NSCLC, 17.7 µM.
`Clc1ccc(OCc2nnc3n2N=C(c2ccc(Cl)cc2Cl)CS3)cc1`: the GI50 with PC-3 prostate is 27.6 µM; with HS 578T breast, 29.1 µM; in the experiment on SNB-75 CNS, 16.3 µM; in the experiment with MDA-MB-231 breast, 14.4 µM; in the experiment on COLO 205 colon, 26.3 µM; in the experiment with DU-145 prostate it was 31.2 µM. Further, the GI50 was 19.6 µM in the experiment on HOP-62 NSCLC, 22.1 µM in the experiment with SK-MEL-2 melanoma, 17.4 µM in the experiment with SF-539 CNS and 32.6 µM in the experiment on A549 NSCLC. Besides, the TGI in the experiment with PC-3 prostate was greater than 100 µM; in the experiment with HS 578T breast, 71 µM; in the experiment with SNB-75 CNS, 43.2 µM; in the experiment on MDA-MB-231 breast it was 33.2 µM; in the experiment with COLO 205 colon it was 86.7 µM; with DU-145 prostate, greater than 100 µM. For the same compound, the TGI with HOP-62 NSCLC is 41.3 µM; with SK-MEL-2 melanoma, 45.8 µM; with SF-539 CNS it was 34.6 µM; with A549 NSCLC, greater than 100 µM.
Consider `CC(=O)OC1CC2C3CCC4C[C@@H](NC(=O)C=C(C)C)CC[C@]4(C)C3CC[C@]2(C)[C@H]1C(C)N(C)C` (some centres undefined), for which the GI50 in the experiment on PC-3 prostate is 2.14 µM; in the experiment with HS 578T breast, 2 µM; in the experiment with SNB-75 CNS, 2 µM; in the experiment with MDA-MB-231 breast, 2.1 µM; in the experiment with COLO 205 colon it was 1.51 µM; in the experiment on DU-145 prostate, 3.41 µM. Further, the GI50 with HOP-62 NSCLC was 1.8 µM; in the experiment on SK-MEL-2 melanoma, 2.31 µM; in the experiment with SF-539 CNS, 1.27 µM; in the experiment with A549 NSCLC, 2.39 µM. Besides, the TGI was found to be 8.97 µM in the experiment with PC-3 prostate; 5.25 µM with HS 578T breast; 6.51 µM with SNB-75 CNS; 4.72 µM in the experiment on MDA-MB-231 breast; 3.14 µM in the experiment on COLO 205 colon; 14.1 µM in the experiment on DU-145 prostate. Besides, the TGI in the experiment with HOP-62 NSCLC stood at 3.64 µM; in the experiment with SK-MEL-2 melanoma it was 4.58 µM; in the experiment on SF-539 CNS, 2.62 µM; in the experiment with A549 NSCLC it was 6.99 µM.
Regarding `NCOC(=O)Cc1ccc(Br)cc1`, the TGI in the experiment on PC-3 prostate, in the experiment with HS 578T breast, in the experiment with SNB-75 CNS, with MDA-MB-231 breast, in the experiment on COLO 205 colon and in the experiment on DU-145 prostate was greater than 100 µM each time. Also, the TGI with HOP-62 NSCLC, with SK-MEL-2 melanoma, in the experiment with SF-539 CNS and with A549 NSCLC was greater than 100 µM in each case.
